The values below come from patent US9931428B2, “Ophthalmic compositions” (priority 2011, dated 2018).

Common to all, as to test: BS EN1276 quantitative suspension test, bactericidal activity, dirty conditions
Common to all, as to assay type: cell-based
Common to all, as to details: aqueous solution of test article; EN 1276 dirty conditions

Test [1] concerns Pseudomonas aeruginosa ATCC 15442.
The next test relates to Escherichia coli 11867.
The next test relates to Bacillus subtillus 10262.
The test system of test [2] is Staphylococcus aureus NCTC 6571.

As to `O=C(O)CC(O)(CC(=O)O)C(=O)O` [Citric acid, citric acid], the Microbial reduction is reported as 2.69 × 10^3 in test [1], 6.46 × 10^2 with Escherichia coli 11867, 2.29 × 10^3 with Bacillus subtillus 10262 and 3.02 × 10^2 in test [2].
